According to ChEMBL document CHEMBL1127931, “Design and synthesis of a prototypical non-peptidic inhibitor model for the enzme renin” (Bioorg Med Chem Lett, 1994):

Target: T1, Renin (Homo sapiens, UniProt P00797)
T1 sequence (P00797 whole entry): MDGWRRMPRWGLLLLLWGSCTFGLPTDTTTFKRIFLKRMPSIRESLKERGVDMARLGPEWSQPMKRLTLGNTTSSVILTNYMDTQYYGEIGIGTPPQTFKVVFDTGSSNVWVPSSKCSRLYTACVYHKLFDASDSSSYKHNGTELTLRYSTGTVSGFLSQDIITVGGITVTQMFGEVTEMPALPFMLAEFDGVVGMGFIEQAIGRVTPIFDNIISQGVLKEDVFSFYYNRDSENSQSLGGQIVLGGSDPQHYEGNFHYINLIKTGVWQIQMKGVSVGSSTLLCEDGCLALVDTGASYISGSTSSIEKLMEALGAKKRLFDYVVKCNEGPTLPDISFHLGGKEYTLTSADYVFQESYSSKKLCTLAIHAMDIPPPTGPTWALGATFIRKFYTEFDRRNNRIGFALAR
Assay: Binding affinity towards human renin was determined

| IC50 [µM] | Structure (SMILES) |
| --- | --- |
| 37 | CCCCNC(=O)[C@H](C)C[C@H](O)[C@@H](N)C[C@@H](C)Cc1ccccc1 |
| > 100 | CCCCNC(=O)[C@H](C)C[C@H](O)[C@H](C[C@@H](C)Cc1ccccc1)NC(=O)OC(C)(C)C |
| > 100 | CCCCNC(=O)[C@H](C)C[C@H](O)C1C[C@@H](C)[C@@H](c2ccccc2)N1C(=O)OC(C)(C)C (some centres undefined) |
| > 100 | CCCCNC(=O)[C@H](C)C[C@H](O)[C@@H]1C[C@@H](C)[C@@H](c2ccccc2)N1C(=O)OCc1ccccc1 |
